Measured values as given in patent publication US20220023317A1, “PREVENTING OR MITIGATING CHEMOTHERAPY INDUCED ALOPECIA USING VITAMIN D” (Berg LLC, priority 2013, published 2022).

What was measured:
HEKa cells [1] = test: Protection of HEKa cells by calcitriol against chemotherapeutic drugs; assay type: cell-based, human
Description: These include: erlotinib (Tarceva), an EGFR Tyr kinase inhibitor; gefutubib (Iressa), an EGFR Tyr kinase inhibitor; sorafenib, inhibitor of several Tyr kinases (Raf, VEGF-R2, c-kit, PDGR-R); Dasatinib, a BCR/ABL Tyr kinase inhibitor; and staurosporin, a relatively nonspecific kinase inhibitor.
The drug treatment period was usually three days. At the end of the three days, the background OD of the 96-well plate was read at 280 nm, before 20 μL of the “Substrate Cell Titer 96 Aqueous One Solution Reagent” (Promega) was added to each well. The plate was returned to the 37° C. incubator, and its OD at 490 nm was read each hour until an OD of approximately 1.5 was reached. The net OD increase was calculated by subtracting the pre-substrate OD reading.
The impact of the drug on the cells was calculated by comparing the OD at different concentrations in relation to the OD of the control wells (without the drug).

PaCa2 = test: Cell growth / viability assay; assay type: cell-based
HEKa cells [2] = test: Keratinocyte growth with calcitriol titration; assay type: cell-based, human; details: titration 0.008-2.0 μg/mL
Description: All experiments were conducted in 96-well plate format. Each well contained the same amount of HEKa cells in about 100 μL of media (usually between 2,000-5,000 cell/well). Calcitriol was dissolved in ethanol to make a stock solution. The stock solution was serially diluted 1:2 in the growth media, covering a range of between 4.0 μg/mL to about 15.5 ng/mL (9 test concentrations). […] All experiments were conducted in duplicates.

HEKa cells [3] = test: Real-time PCR Neuroscience and Ion Channels array, calcitriol-treated HEKa; assay type: cell-based, human; details: 0.1 μg/mL; for KCNB2 mRNA regulation pattern: full cell: upregulated until 24 hours
Description: Changes in mRNA levels were evaluated using real-time PCR quantification to assess mRNA levels in preselected subsets containing 80 pathway specific targets (see Appendix). The PCR array analysis utilized two groups of genes—those related to Heat Shock Proteins (SABiosciences), and those related to Neuroscience Ion Channels and Transporters (SABioscience). Cell culture: Primary human epidermal keratinocytes (HEKa) were maintained in Epilife Medium (Cascade Biologics, Inc., Portland Oreg.) along with Human Keratinocyte Growth Supplement (Cascade Biologics, Inc., Portland Oreg.). […] D3 treatment of HEKa cells: […] Vehicle control group of cells were treated with 5 mL media containing 1 μL of ethanol. Cells were harvested 3, 6, 16, 24, 48, or 72 hours after the start of the treatment. RNA isolation: Cells were lysed for RNA isolation at different treatment times using the RNeasy Mini kit (Qiagen, Inc., Valencia Calif.) following the manufacturer's instructions. RNA was quantified by measuring optical density at 260 nm. First Strand Synthesis: […] Real-time PCR: Products from the first strand synthesis were diluted with water, mixed with the SYBR green master mix (SABiosciences., Frederick Md.) and loaded onto PCR arrays. Real time PCR was run on the PCR Arrays (Heat Shock Protein Arrays, and Neuroscience and Ion Channel Arrays) (SABiosciences, Frederick Md.) on a Biorad CFX96. Data analyses were performed using the PCR array data analysis software available on the SABiosciences website.

HEKa cells [4] = test: 2-D gel electrophoresis proteomic analysis of calcitriol-treated HEKa; assay type: cell-based, human; details: 0.1 μg/mL
Description: The cell pellets were then analyzed using proteomic methods, such as 2-D gel and Western blot analysis. […] In all, analysis of about 458 protein spots in the comparative study was performed, comparing the control sample against the 3-, 6-, and 24-hour treatment samples. Six spots showing statistically significant differential changes were identified. These spots were excised, and their protein contents subjected to sequence identification by trypsin digestion and mass spectrometry characterization.

MIAC51 = test: Cure / survival rate of chloroleukemic rats after chemotherapy; assay type: in vivo, rat; details: for Cured (number of rats): of 40
Description: On day 5 after birth all rats received 1×105 MIAC51 intraperitoneally in 0.1 mL of serum free (SF) RPMI. MIAC51 were cultured in RPMI 1640 supplemented with L-glutamine and 10% fetal bovine serum at […] in a 5% CO2, 100% humidity incubator. Cells were grown to 50% confluency (1.5×106 mL) collected in 50 mL conical tubes, centrifuged at 600 g for 10 minutes at room temperature and resuspended in SF-RPMI at a concentration of 1×10^6/mL prior to injection.

HepG2 = test: Cell growth / viability assay; assay type: cell-based
[5] = 0.1 μg/mL calcitriol for two passages
[6] = 0.1 μg/mL calcitriol supplement
[7] = ADM + paclitaxel + etoposide, after two rounds
[8] = CTX + ADM + ARA-C, after two rounds
[9] = CTX + paclitaxel + etoposide, after two rounds
[10] = CTX, after two rounds of chemotherapy

C=C1/C(=C\C=C2/CCC[C@]3(C)[C@@H]([C@H](C)CCCC(C)(C)O)CC[C@@H]23)C[C@@H](O)C[C@@H]1O [Calcitriol, (1a.3B.5Z.7E)-9,10-secocholesta-5,7,10(19)-triene-1,3,25-triol]
protective effect against 5-FU (HEKa cells [1]; 0.1 μg/mL calcitriol): mild protective effect | protective effect against doxorubicin (HEKa cells [1]; 0.1 μg/mL calcitriol): did not appear to provide a significant protective effect | protective effect against gemcitabine (HEKa cells [1]; 0.1 μg/mL calcitriol): mild protective effect | protective effect against irinotecan (HEKa cells [1]; 0.1 μg/mL calcitriol): positive protective effect | protective effect against paclitaxel (HEKa cells [1]; 0.1 μg/mL calcitriol): some protective effects | protective effect against tamoxifen (HEKa cells [1]; 0.1 μg/mL calcitriol): weak | interaction (synergy) between calcitriol and drugs tested (HEKa cells [1]; 0.1 μg/mL calcitriol premixed with 15 drugs, three days): no interaction | protection against alkylating agents cisplatin and carboplatin (HEKa cells [1]; 0.1 μg/mL calcitriol, low dosage levels): moderate level of protection | protective effect against kinase inhibitor drugs (HEKa cells [1]; 0.1 μg/mL calcitriol, erlotinib, gefitinib, sorafenib, dasatinib, staurosporin at low drug dosage): provided certain growth stimulation and protected the HEKa cells | effect of calcitriol on cell growth (PaCa2): no significant growth promoting or growth inhibiting effects | effect of calcitriol on cytotoxic effect of Doxorubicin (PaCa2): did not appear to appreciably alter | response to doxorubicin, cisplatin, erlotinib after calcitriol exposure (PaCa2; [5]): did not alter | 5-FU ED50 curve with vs without calcitriol (PaCa2; [6]): not significantly different | stimulation of HEKa cell growth (HEKa cells [2]; lowest levels of calcitriol): 10-20% | calcitriol concentration at which cell growth is inhibited (HEKa cells [2]): ≥ 1.0 µg/mL | SLC1A3 mRNA regulation pattern (HEKa cells [3]; full cell: downregulated at 48 hours): downregulated | SLC1A1 mRNA regulation pattern (HEKa cells [3]; full cell: upregulated at 16 hrs): upregulated | KCNN4 mRNA regulation pattern (HEKa cells [3]; full cell: upregulated at 48 hours): upregulated | KCNB2 mRNA regulation pattern (HEKa cells [3]): upregulated at about 24 hours | KCNB2 mRNA regulation pattern (HEKa cells [3]; listed as Vitamin D3): upregulated | S100 A9 (Calprotectin) Response (HEKa cells [4]; full cell: down at 6 and 24 hours): down at 6 | Keratin 17 Response (HEKa cells [4]; full cell: down at 24 hours): down at | Glutathione S-transferase (GST) Response (HEKa cells [4]; full cell: up at 3, 6, and 24 hours): up at 3, 6, | % cured / survival rate (MIAC51; [7]): 80% | Cured (number of rats) (MIAC51; [7]): 32 | % cured / survival rate (MIAC51; [8]): 78% | Cured (number of rats) (MIAC51; [8]): 31 | % cured / survival rate (MIAC51; CTX + ADM, after two rounds): 50% | Cured (number of rats) (MIAC51; CTX + ADM, after two rounds): 20 | % cured / survival rate (MIAC51; [9]): 83% | Cured (number of rats) (MIAC51; [9]): 33 | % cured / survival rate (MIAC51; [10]): 25% | Cured (number of rats) (MIAC51; [10]): 10 | effect on efficacy of the chemotherapy agents (MIAC51; calcitriol 2 μg/mL): did not affect the efficacy of the chemotherapy agents | effect of calcitriol on cytotoxic effect of Doxorubicin (HepG2): did not appear to appreciably alter | response to doxorubicin, cisplatin, erlotinib after calcitriol exposure (HepG2; [5]): did not alter | 5-FU ED50 curve with vs without calcitriol (HepG2; [6]): not significantly different | concentrations giving growth inhibition (HepG2; high concentrations): > 0.5 µg/mL | concentrations giving growth stimulation (HepG2; low concentrations): 0.05 to 0.25 µg/mL
